Test results from patent publication US10993935B2, “Compositions and methods for treatment of lung infections” (priority 2018, dated 2021).

How the values were obtained:
Format in all cases: cell-based, Pseudomonas aeruginosa
P. aeruginosa strains = assay: MIC and synergy testing (checkerboard/isobologram) of RFX and TOB; details: strain CF003, NM
[1] = tested on: clinical mucoid isolate from a CF patient; assay: Further test of screen hits on a clinical mucoid isolate; details: compared with the other screen hits of Table 2
[2] = tested on: P. aeruginosa PAO581 (PAO1mucA25); assay: NIH drug library screen for inhibition of growth, mucoidy and PalgD-lacZ colour
[3] = tested on: promoter PalgD of the alginate biosynthetic operon; assay: PalgD-lacZ promoter reporter (β-galactosidase) activity; details: PAO581, CF001, CF010; MIC1, MIC10, MIC30, MIC50 on PIA, 37° C., 24 h
Procedure: FIGS. 2A-2C include graphs showing RFX versus TOB mediated inhibition of the promoter PalgD activity of the alginate biosynthetic operon in laboratory and clinical isolates of P. aeruginosa. The β-galactosidase activity of PalgD was measured using the pLP170-PalgD-lacZ reporter construct in PAO581 (FIG. 2A), CF001 (FIG. 2B), and CF010 (FIG. 2C) grown on PIA plates with increasing concentrations of RFX or TOB (MIC1, MIC10, MIC30, MIC50) at 37° C. for 24 h. Relative expression mean values are shown ±SE of triplicate determinations. Two-way ANOVA was used to determine statistical significance set at a P value of <0.01 (****, P<0.0001).
While RFX inhibits alginate production, additional experiments were conducted to determine whether the inhibition was specific to alginate or whether it was a global suppression of transcription. To test this, the promoter reporter constructs PalgD_lacZ in pLP170 were used to quantify the promoter activity of the alginate biosynthetic operon PalgD. A promoter-less empty vector pLP170-lacZ was used as a negative control. Using the β-galactosidase reporter activity, the activity of PalgD in PAO581 was quantified (FIG. 2A), and two mucoid isolates (CF001 and CF010) from CF patients.

P. aeruginosa biofilms [4] = assay: Viable cell assay in preformed biofilms (MTT); details: PAO1, CF001, CF010; 24 h biofilms treated at 3×MIC
Procedure: (§1) FIGS. 3A-3B include graphs showing biofilm and cell viability reduction from treatment with TOB and/or RFX, where (FIG. 3A) biofilms were grown for 24 h in a 96-well plate and then treated with TOB, RFX, or TOB and RFX at a concentration of 3×MIC, or where (FIG. 3B) biofilms were grown for 24 h in a 96-well plate and then treated with TOB, RFX, or TOB and RFX at concentration of 3×MIC. Two-way ANOVA analysis was used with statistical significance set as a P value of <0.01 (****, P<0.0001; **, P<0.001; *, P<0.01).
Viable Cell Assay. Viable cell counts were done to determine the reduction of viable cells in preformed biofilms treated with TOB and/or RFX. Briefly, following biofilm reduction protocol, biofilms were grown in a flat bottom 96-well microplate (Corning) using 200 μl LB of 1.0-1.5×10^5 inoculum of lab and clinical strains of non-mucoid and mucoid P. aeruginosa for 24 h at 37° C. After incubation, the media was removed, and plate was washed with PBS twice. New LB media containing 1-5×MIC90 of TOB and/or RFX was added to the plate in a checkerboard pattern. After 24 h growth at 37° C., the media was removed and replaced with methylthiazoltetrazolium (MTT; Sigma). After 1 h incubation, DMSO was added and plates were read via OD at 570 nm using SpectraMax i3x plate reader to determine viable cell differences between TOB and/or RFX. […]

P. aeruginosa biofilms [5] = assay: Biofilm reduction assay (crystal violet); details: PAO1, CF001, CF010; 24 h biofilms treated at 3×MIC
Procedure: as §1
Biofilm Reduction Assay. A biofilm reduction assay was used to determine the reduction of biofilms in P. aeruginosa strains by TOB and/or RFX. Briefly, biofilms were grown in a flat bottom 96-well microplate (Corning) using 200 μl LB of 1.0-1.5×10^5 inoculum of lab and clinical strains of non-mucoid and mucoid P. aeruginosa. After 24-30 h incubation at 37° C., the media was removed, and plates were washed with PBS. New media containing 1-5×MIC90 of TOB and/or RFX was added to the plate in a checkerboard pattern to determine synergy of biofilm reduction. After 24 h incubation at 37° C., the media was removed and 200 μl of 0.1% aqueous crystal violet was added and left at room temperature 0.5 h. […] The plates were then read via OD at 595 nm using SpectraMax i3x plate reader to compare biofilm dispersion between TOB and/or RFX. […]

| Structure (SMILES) | FIC RFX (P. aeruginosa strains) | MIC RFX in Combination (P. aeruginosa strains; in combination with TOB) | inhibition of growth and mucoidy [1] | Growth 2 μM ([2]; drug at 2 μM, PAO581 on PIA) | Mucoidy 2 μM ([2]; drug at 2 μM, PAO581 with pLP170-PalgD-lacZ on PIA + X-gal) | Color 2 μM ([2]; drug at 2 μM, X-gal colour of PalgD-lacZ reporter, 'Light' wraps to 'Light Blue') | Growth 10 μM ([2]; drug at 10 μM, PAO581 on PIA) | Growth 50 μM ([2]; drug at 50 μM, PAO581 on PIA) | PalgD promoter activity (β-galactosidase reporter) [3] | viable cells in a preformed biofilm (P. aeruginosa biofilms [4]) | reduction of preformed biofilm (biofilm aggregates) (P. aeruginosa biofilms [5]) |
| --- | --- | --- | --- | --- | --- | --- | --- | --- | --- | --- | --- |
| CO[C@H]1/C=C/O[C@@]2(C)Oc3c(C)c(O)c4c(O)c(c5c(nc6cc(C)ccn65)c4c3C2=O)NC(=O)/C(C)=C\C=C\[C@H](C)[C@H](O)[C@@H](C)[C@@H](O)[C@@H](C)[C@H](OC(C)=O)[C@@H]1C [RFX, rifaximin] | 0.25 | 1 | most effective drug to inhibit the growth and mucoidy | Reduced | Reduced | Clear | Inhibited | Inhibited | more pronounced effect on promoter activity than TOB |  |  |
| NC[C@H]1O[C@H](O[C@H]2[C@H](O)[C@@H](O[C@H]3O[C@H](CO)[C@@H](O)[C@H](N)[C@H]3O)[C@H](N)C[C@@H]2N)[C@H](N)C[C@@H]1O [TOB, tobramycin] |  |  |  |  |  |  |  |  |  | significantly reduced the number of viable cells | significantly reduced biofilm as compared to the untreated control |
